# Activity calls are given as the source filed them. The rule behind the calls is not given here.
# Legend:
# [1] = test system: AGS; assay: Potency index, ratio of cisplatin IC50 to test compound IC50 for anti-proliferative activity against human AGS cells assessed as inhibition of cell viability incubated for 48 hrs by CCK8 assay; format: functional
# [2] = test system: GES1; assay: Anti-proliferative activity against human GES1 cells; format: toxicity, cell-based
# [3] = test system: AGS; assay: Anti-proliferative activity against human AGS cells assessed as inhibition of cell viability incubated for 48 hrs by CCK8 assay; format: functional, cell-based
# [4] = test system: Gastric cancer cell; assay: Anti-proliferative activity against human gastric cancer cells assessed as reduction in cell proliferation at 10 to 40 uM; format: functional, cell-based; settings: dose 10-40 µM
# [5] = test system: AGS; assay: Induction of apoptosis in human AGS cells assessed as necrotic cells at 5 uM by Annexin V-FITC/PI staining based flow cytometry (reference value: 0.20 %); format: functional
# [6] = test system: B16; assay: Activation of NCX1 in mouse B16 cells assessed as increase in intracellular Fluo4-Ca2+ level at 5 uM in presence of extracellular Fluo4-Ca2+ by cell imaging analysis; format: cell-based; settings: filed as activator
# [7] = target: Sodium/calcium exchanger 1 (Homo sapiens) (UniProt P32418); assay: Activation of NCX1 in human AGS cells assessed as induction of membrane currents at 5 uM in presence of extracellular Fluo4-Ca2+/SN6 by cell imaging analysis; format: cell-based
# [8] = test system: AGS; assay: Downregulation of AKT level in human AGS cells by Western blot analysis; format: functional, cell-based; settings: dose <= 10.0 µM
# [9] = test system: AGS; assay: Downregulation of AKT level in human AGS cells at 5 uM in presence of SN 6 by Western blot analysis; format: functional, cell-based
# [10] = target: Sodium/calcium exchanger 1 (Homo sapiens) (UniProt P32418); assay: Activation of NCX1 in human AGS cells assessed as increase in intracellular Fluo4-Ca2+ level at 5 uM in presence of extracellular Fluo4-Ca2+/SN6 by cell imaging analysis; format: cell-based
# [11] = test system: AGS; assay: Induction of apoptosis in human AGS cells assessed as early apoptotic cells at 10 uM by Annexin V-FITC/PI staining based flow cytometry (reference value: 4.25 %); format: functional
# [12] = test system: AGS; assay: Downregulation of beta-catenin level in human AGS cells by Western blot analysis; format: functional, cell-based; settings: dose <= 10.0 µM
# [13] = test system: B16; assay: Antiproliferative activity against mouse B16 cells assessed as inhibition of cell viability; format: functional, cell-based
# [14] = test system: AGS; assay: Induction of apoptosis in human AGS cells assessed as viable cells at 20 uM by Annexin V-FITC/PI staining based flow cytometry (reference value: 94.1 %); format: functional; settings: read-out: Activity
# [15] = test system: AGS; assay: Induction of cell cycle arrest in human AGS cells assessed as cell accumulation at G2 phase at 5 uM by PI staining based flow cytometry (reference value: 25.7 %); format: functional
# [16] = test system: AGS; assay: Induction of apoptosis in human AGS cells assessed as late apoptotic cells at 10 uM by Annexin V-FITC/PI staining based flow cytometry (reference value: 1.43 %); format: functional
# [17] = test system: AGS; assay: Induction of apoptosis in human AGS cells assessed as viable cells at 5 uM by Annexin V-FITC/PI staining based flow cytometry (reference value: 94.1 %); format: functional; settings: read-out: Activity
# [18] = target: Sodium/calcium exchanger 1 (Homo sapiens) (UniProt P32418); assay: Activation of NCX1 in human AGS cells assessed as induction of membrane currents at 5 uM in presence of extracellular Fluo4-Ca2+ by cell imaging analysis; format: cell-based; settings: filed as activator
# [19] = test system: AGS; assay: Induction of apoptosis in human AGS cells assessed as necrotic cells at 20 uM by Annexin V-FITC/PI staining based flow cytometry (reference value: 0.20 %); format: functional
# [20] = test system: AGS; assay: Downregulation of PI3K level in human AGS cells by Western blot analysis; format: functional, cell-based; settings: dose <= 10.0 µM
# [21] = test system: B16; assay: Antitumor activity against mouse B16 cells implanted in nude mouse at 2.5 to 5 mg/kg, ip; format: functional, organism-based; settings: dose 2.5-5 mg/kg
# [22] = target: Sodium/calcium exchanger 1 (Homo sapiens) (UniProt P32418); assay: Activation of NCX1 in human DLD-1 cells assessed as increase in intracellular Fluo4-Ca2+ level at 5 uM in presence of extracellular Fluo4-Ca2+ by cell imaging analysis; format: cell-based
# [23] = test system: AGS; assay: Induction of apoptosis in human AGS cells assessed as viable cells at 10 uM by Annexin V-FITC/PI staining based flow cytometry (reference value: 94.1 %); format: functional; settings: read-out: Activity
# [24] = test system: AGS; assay: Downregulation of beta-catenin level in human AGS cells at 5 uM in presence of SN 6 by Western blot analysis; format: functional, cell-based
# [25] = test system: AGS; assay: Induction of apoptosis in human AGS cells assessed as early apoptotic cells at 5 uM by Annexin V-FITC/PI staining based flow cytometry (reference value: 4.25 %); format: functional
# [26] = target: Sodium/calcium exchanger 1 (Homo sapiens) (UniProt P32418); assay: Activation of NCX1 in human AGS cells harboring shNCX1 assessed as increase in intracellular Fluo4-Ca2+ level at 5 uM in presence of extracellular Fluo4-Ca2+ by cell imaging analysis; format: cell-based
# [27] = test system: AGS; assay: Induction of cell cycle arrest in human AGS cells assessed as cell accumulation at S phase at 5 uM by PI staining based flow cytometry (reference value: 32.4 %); format: functional
# [28] = test system: AGS; assay: Effect on ERK1/2 level in human AGS cells up to 10 uM by Western blot analysis; format: functional, cell-based
# [29] = target: Sodium/calcium exchanger 1 (Homo sapiens) (UniProt P32418); assay: Activation of NCX1 in human AGS cells assessed as increase in intracellular Fluo4-Ca2+ level at 5 uM in presence of extracellular Fluo4-Ca2+ by cell imaging analysis; format: cell-based; settings: filed as activator
# [30] = test system: AGS; assay: Downregulation of PI3K level in human AGS cells at 5 uM in presence of SN 6 by Western blot analysis; format: functional, cell-based
# [31] = test system: AGS; assay: Induction of apoptosis in human AGS cells assessed as late apoptotic cells at 20 uM by Annexin V-FITC/PI staining based flow cytometry (reference value: 1.43 %); format: functional
# [32] = test system: AGS; assay: Inhibition of cell migration in human AGS cells at 5 uM by transwell assay; format: functional, cell-based
# [33] = test system: AGS; assay: Induction of apoptosis in human AGS cells assessed as early apoptotic cells at 20 uM by Annexin V-FITC/PI staining based flow cytometry (reference value: 4.25 %); format: functional
# [34] = test system: B16; assay: Activation of NCX1 in mouse B16 cells harboring shNCX1 assessed as increase in intracellular Fluo4-Ca2+ level at 5 uM in presence of extracellular Fluo4-Ca2+ by cell imaging analysis; format: cell-based
# [35] = test system: AGS; assay: Inhibition of cell migration in human AGS cells at 5 uM incubated up to 24 hrs by scratch wound healing assay; format: functional, cell-based
# [36] = test system: AGS; assay: Induction of apoptosis in human AGS cells assessed as late apoptotic cells at 5 uM by Annexin V-FITC/PI staining based flow cytometry (reference value: 1.43 %); format: functional
# [37] = test system: AGS; assay: Induction of cell cycle arrest in human AGS cells assessed as cell accumulation at G1 phase at 5 uM by PI staining based flow cytometry (reference value: 41.9 %); format: functional
# [38] = test system: B16; assay: Activation of NCX1 in mouse B16 cells assessed as increase in intracellular Fluo4-Ca2+ level at 5 uM in presence of extracellular Fluo4-Ca2+/SN 6 by cell imaging analysis; format: cell-based
# [39] = test system: AGS; assay: Induction of apoptosis in human AGS cells assessed as necrotic cells at 10 uM by Annexin V-FITC/PI staining based flow cytometry (reference value: 0.20 %); format: functional
# Sequence of Sodium/calcium exchanger 1 (Homo sapiens) (P32418 36-973 limits assumed): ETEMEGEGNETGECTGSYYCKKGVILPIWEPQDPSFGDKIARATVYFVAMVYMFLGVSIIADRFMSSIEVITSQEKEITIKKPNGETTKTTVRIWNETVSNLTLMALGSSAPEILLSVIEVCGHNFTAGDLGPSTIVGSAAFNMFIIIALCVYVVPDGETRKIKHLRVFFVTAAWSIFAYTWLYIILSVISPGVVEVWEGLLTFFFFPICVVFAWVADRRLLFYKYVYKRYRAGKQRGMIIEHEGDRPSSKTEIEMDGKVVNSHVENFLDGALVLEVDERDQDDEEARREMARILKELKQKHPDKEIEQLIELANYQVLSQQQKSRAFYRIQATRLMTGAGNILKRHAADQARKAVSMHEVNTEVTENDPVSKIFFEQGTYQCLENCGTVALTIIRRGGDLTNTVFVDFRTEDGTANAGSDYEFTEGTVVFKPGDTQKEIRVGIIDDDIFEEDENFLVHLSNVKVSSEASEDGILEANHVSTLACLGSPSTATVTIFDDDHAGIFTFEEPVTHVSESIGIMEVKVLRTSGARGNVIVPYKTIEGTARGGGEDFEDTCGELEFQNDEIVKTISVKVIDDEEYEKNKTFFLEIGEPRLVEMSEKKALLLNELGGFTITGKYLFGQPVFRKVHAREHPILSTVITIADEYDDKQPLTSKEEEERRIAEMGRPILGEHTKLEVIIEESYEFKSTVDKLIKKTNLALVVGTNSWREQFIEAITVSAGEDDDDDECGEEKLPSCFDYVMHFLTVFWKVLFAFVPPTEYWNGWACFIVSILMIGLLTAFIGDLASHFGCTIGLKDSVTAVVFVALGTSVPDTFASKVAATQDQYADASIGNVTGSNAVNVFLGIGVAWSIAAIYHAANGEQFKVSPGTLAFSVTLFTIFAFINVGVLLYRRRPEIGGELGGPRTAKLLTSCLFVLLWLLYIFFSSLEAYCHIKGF
compound,measurement,setting,value
CC(=O)O[C@H]1[C@@H](C)CC(O)=C2C(=O)c3c(ccc(-c4ccc(O)c5c4O[C@]4(CO)C(=C(O)C[C@H](C)[C@@H]4OC(C)=O)C5=O)c3O)O[C@]21CO,Ratio IC50,[1],2
same,Activity,[2],Non-toxic
same,IC50,"[3]; Homo sapiens, AGS, 48 h",3.06 µM
same,Activity,[4],Active
CC(=O)OC[C@@]12Oc3c(-c4ccc(O)c5c4O[C@]4(CO)C(=C(O)C[C@H](C)[C@@H]4OC(C)=O)C5=O)ccc(O)c3C(=O)C1=C(O)C[C@H](C)[C@@H]2OC(C)=O,Activity,[5],0.13%
same,Ratio IC50,[1],2
same,Activity,[6],Active
same,Activity,[7],inactive
same,Activity,[8],Dose-dependent-effect
same,Activity,[9],inactive
same,Activity,[10],inactive
same,Activity,[11],4.24%
same,Activity,[12],Dose-dependent-effect
same,Activity,[2],Non-toxic
same,IC50,[13],5.36 µM
same,viability at 20 µM,[14],77.3%
same,Activity,[15],24.9%
same,Activity,[16],2.01%
same,viability at 5 µM,[17],91.8%
same,Activity,[18],Active
same,Activity,[19],0.18%
same,Activity,[20],Dose-dependent-effect
same,Activity,[21],Active; Activity Was Much Greater Than Cisplatin
same,Activity,[22],inactive
same,viability at 10 µM,[23],93.7%
same,Activity,[24],inactive
same,Activity,[25],5.57%
same,Activity,[26],inactive
same,IC50,"[3]; Homo sapiens, AGS, 48 h",5.2 µM
same,Activity,[27],26.3%
same,Activity,[28],No effect
same,Activity,[29],Active
same,Activity,[30],inactive
same,Activity,[31],5.94%
same,inhibition,[32],Active
same,Activity,[33],16.6%
same,Activity,[34],inactive
same,inhibition,[35],Active
same,Activity,[36],2.54%
same,Activity,[37],48.8%
same,Activity,[4],Active
same,Activity,[38],inactive
same,Activity,[39],0.094%
CC(=O)O[C@H]1[C@@H](C)CC(O)=C2C(=O)c3c(ccc(-c4ccc5c(c4O)C(=O)C4=C(O)C[C@H](C)[C@H](OC(C)=O)[C@]4(CO)O5)c3O)O[C@]21CO,Ratio IC50,[1],2
same,Activity,[2],Non-toxic
same,IC50,"[3]; Homo sapiens, AGS, 48 h",3.45 µM
same,Activity,[4],Active
CC(=O)OC[C@@]12Oc3c(-c4ccc5c(c4O)C(=O)C4=C(O)C[C@H](C)[C@H](OC(C)=O)[C@]4(CO)O5)ccc(O)c3C(=O)C1=C(O)C[C@H](C)[C@@H]2OC(C)=O (stereo in doubt; 3) [listing 1 of 2 here],IC50,[3]; ags,3.89 µM
CC(=O)O[C@H]1[C@@H](C)CC(O)=C2C(=O)c3c(O)ccc(-c4ccc5c(c4O)C(=O)C[C@](CO)([C@H]4OC(=O)C[C@@H]4C)O5)c3O[C@]21CO,Ratio IC50,[1],2
same,Activity,[2],Non-toxic
same,IC50,"[3]; Homo sapiens, AGS, 48 h",2.65 µM
CC(=O)OC[C@@]12Oc3c(-c4ccc5c(c4O)C(=O)C4=C(O)C[C@H](C)[C@H](OC(C)=O)[C@]4(CO)O5)ccc(O)c3C(=O)C1=C(O)C[C@H](C)[C@@H]2OC(C)=O (stereo in doubt; 2) [listing 1 of 2 here],Activity,[4],Active
CC(=O)OC[C@@]12Oc3c(-c4ccc5c(c4O)C(=O)C4=C(O)C[C@H](C)[C@H](OC(C)=O)[C@]4(CO)O5)ccc(O)c3C(=O)C1=C(O)C[C@H](C)[C@@H]2OC(C)=O (stereo in doubt; 3) [listing 2 of 2 here],Activity,[7],inactive
same,Activity,[10],inactive
same,Activity,[18],Active
same,Activity,[22],inactive
same,Activity,[26],inactive
same,Activity,[4],Active
CC(=O)OC[C@@]12Oc3ccc(-c4ccc5c(c4O)C(=O)C4=C(O)C[C@H](C)[C@H](OC(C)=O)[C@]4(COC(C)=O)O5)c(O)c3C(=O)C1=C(O)C[C@H](C)[C@@H]2OC(C)=O,Ratio IC50,[1],2
same,Activity,[2],Non-toxic
same,IC50,"[3]; Homo sapiens, AGS, 48 h",6.23 µM
same,Activity,[4],Active
CC(=O)O[C@H]1[C@@H](C)CC(O)=C2C(=O)c3c(O)ccc(-c4ccc(O)c5c4O[C@]4(CO)C(=C(O)C[C@H](C)[C@@H]4OC(C)=O)C5=O)c3O[C@]21CO,Ratio IC50,[1],2
same,Activity,[2],Non-toxic
same,IC50,"[3]; Homo sapiens, AGS, 48 h",13.8 µM
same,Activity,[4],Active
CC(=O)OC[C@@]12Oc3c(-c4ccc5c(c4O)C(=O)C4=C(O)C[C@H](C)[C@H](OC(C)=O)[C@]4(CO)O5)ccc(O)c3C(=O)C1=C(O)C[C@H](C)[C@@H]2OC(C)=O (stereo in doubt; 2) [listing 2 of 2 here],Ratio IC50,[1],2
same,Activity,[2],Non-toxic
same,IC50,"[3]; Homo sapiens, AGS, 48 h",5.36 µM
CC(=O)OC[C@@]12Oc3ccc(-c4ccc5c(c4O)C(=O)C4=C(O)C[C@H](C)[C@H](OC(C)=O)[C@]4(CO)O5)c(O)c3C(=O)C1=C(O)C[C@H](C)[C@@H]2OC(C)=O,Ratio IC50,[1],2
same,Activity,[2],Non-toxic
same,IC50,"[3]; Homo sapiens, AGS, 48 h",3.47 µM
same,Activity,[4],Active
